Results as given in patent US20080200568A1, “Genes Associated With Type ll Diabetes Mellitus” (priority 2005, published 2008).

Key:
Assay type in all cases: in vivo
[1] = tested on: male C57BL/6J mice fed a high fat Western Diet, with or without streptozotocin; assay: Acute Glucose Lowering Study (tail-vein blood glucose over 5 hours after a single dose); conditions: for average change in blood glucose measurement: 100 mg/kg, N=10
From the text: The studies reported below dosed male C57BL/6J mice with an EP3 antagonist, GW671021B, and monitored the effects on glucose homeostasis by measuring tail-vein blood glucose. The animals were either (a) fed a high fat diet to induce mild insulin resistance, or (b) were fed the high fat diet and also treated with a low dose of streptozotocin (which damages the pancreatic beta-cells) resulting in both insulin resistance and insulin deficiency (as in T2DM patients).
Materials and Methods: Male 6 week old C57BL/6J mice (Jackson Laboratory, Bar Harbor Me.) were made mildly insulin resistant by feeding a high fat Western Diet (WD) (Research Diets, D12079B) for 3 weeks. Test mice were then made insulin deficient by intraperitoneal injection (IP) with 100 mg/kg Streptozotocin (STZ or streptozocin; Zanosar®, Sicor Pharmaceuticals, Irvine, Calif.) reconstituted in citric acid. Control mice (also on the WD) were injected with the same volume and concentration of citric acid without the STZ. Two weeks after the STZ (or control citric acid) injections the mice received injections of either GW021 in vehicle, or vehicle alone (as described below). Student's t-test or Tukey's HSD (Honestly Significant Different) test was used to determine the significance of the results.
Acute Glucose Lowering Study: At 6:30 am mice were transferred to clean cages with water in the procedure room and allowed to acclimate for 1 hour. After acclimation, a small snip was made at the tip of the tail for blood collection and baseline glucose measurements were collected using the Bayer Elite XL glucometer. Mice were dosed with either compound GW671021B (100 mg/kg body weight) in a suspension in 0.5% HPMC, 0.1% Tween 80; or dosed with Vehicle only (HPMC, 0.1% Tween 80). Whole blood for glucose measurement was collected at 0.5, 1, 2, 3, 4, and 5 hours after dosing. […] There were 10 mice in each treatment group.
Data represent an average blood glucose measurement (mg/dL) of the 10 mice in each treatment group at each time point.

[2] = tested on: C57BL/6J mice fed a high fat diet (Western Diet) and treated with streptozocin; assay: 14 Day Chronic Study (glucose after 1st, 15th and 27th dose); conditions: 0, 7 and 13 days of treatment, twice daily dosing, compared to STZ treated mice without compound
Protocol: A 14 day chronic study in C57BL/6J mice was performed. The animals were fed a high fat diet (Western Diet) and treated with a low dose of streptozocin (which damages the pancreatic beta-cells) resulting in both insulin resistance and insulin deficiency (as in T2DM patients). Mice were prepared as generally described above in Example 2. Two weeks after injection of streptozocin, a twice daily dosing schedule was started with: • 1. GW67021B (10 mg/kg, 30 mg/kg, or 100 mg/kg); or • 2. CB-1 (Rimonabant, antagonist of the CB-1 receptor; commonly used as a positive control for weight-loss inducing drugs) at 5 mg/kg; or • 3. GW34784 (PPAR gamma agonist compound as another positive control) at 3 mg/kg (also referred to as GW845 or GW7845))
All compounds were dosed in suspension in 0.5% HPMC; 0.1% Tween 80 by body weight. The same general procedures used in the acute study (Example 2) were utilized in this chronic study. Glucose was measured following the 1st, 15th and 27th dose (day 0, 7, and 13) at 0, 1, 2, 3, 4, and 5 hour time points. Results are graphed in FIGS. 3a-3c for the groups of mice receiving WD+Streptozocin+Vehicle (no compound); WD+Streptozocin+GW021 10 mg/kg; WD+Streptozocin+GW021 30 mg/kg; WD+Streptozocin+GW021 100 mg/kg; WD+Streptozocin+GW845 3 mg/kg; WD+Streptozocin+CB-1 5 mg/kg.

[3] = tested on: streptozocin-treated mice fed a high-fat Western Diet; assay: Final Glucose Measurement on the 14th day (after 28th dose); conditions: compared to mice not treated with compound (FIG. 4)
Protocol: Groups of mice were maintained on diet and dosing schedules as described, and on the 14th day were moved to the procedure room, dosed with a final 28th dose (of compound or vehicle only, according to their group as shown in FIG. 4), then acclimated for about 1 hour with access to food and water before bleeding to measure blood glucose.
In FIG. 4 the first […] bars (from left to right) represent mice that were treated with STZ and vehicle only; STZ and GW021B 10 mg/kg; STZ and GW021 B 30 mg/kg; STZ and GW021 B 100 mg/kg; STZ and GW845 3 mg/kg. The seventh bar represents mice that were not treated with STZ (citric acid control) and were not treated with any compound (Vehicle only). “Vehicle” mice were dosed with HPMC/Tween only (no GW021, CB-1 or GW 845). Each bar represents an average of a single blood draw taken on day 14 from each of the ten mice in a group.

SMILES: COc1ccc(Br)cc1S(=O)(=O)[N-]C(=O)/C=C/c1ccccc1Cc1ccc2ccccc2c1.[Na+] [GW021B]
- average change in blood glucose measurement ([1]; WD + STZ mice, 0 hrs (baseline)): 0 mg/dL
- average change in blood glucose measurement ([1]; WD + STZ mice, 0.5 hrs after dosing): -16 mg/dL
- average change in blood glucose measurement ([1]; WD + STZ mice, 1 hr after dosing): -46 mg/dL
- average change in blood glucose measurement ([1]; WD + STZ mice, 2 hrs after dosing): -59 mg/dL
- average change in blood glucose measurement ([1]; WD + STZ mice, 3 hrs after dosing): -66 mg/dL
- average change in blood glucose measurement ([1]; WD + STZ mice, 4 hrs after dosing): -83 mg/dL
- average change in blood glucose measurement ([1]; WD + STZ mice, 5 hrs after dosing): -79 mg/dL
- average change in blood glucose measurement ([1]; WD + citric acid mice (no STZ), 0 hrs (baseline)): 0 mg/dL
- average change in blood glucose measurement ([1]; WD + citric acid mice (no STZ), 0.5 hrs after dosing): -14 mg/dL
- average change in blood glucose measurement ([1]; WD + citric acid mice (no STZ), 1 hr after dosing): -14 mg/dL
- average change in blood glucose measurement ([1]; WD + citric acid mice (no STZ), 2 hrs after dosing): -9 mg/dL
- average change in blood glucose measurement ([1]; WD + citric acid mice (no STZ), 3 hrs after dosing): -18 mg/dL
- average change in blood glucose measurement ([1]; WD + citric acid mice (no STZ), 4 hrs after dosing): -37 mg/dL
- average change in blood glucose measurement ([1]; WD + citric acid mice (no STZ), 5 hrs after dosing): -37 mg/dL
- effect on blood glucose (change compared to baseline), in words ([1]; streptozocin-treated C57BL/6J mice fed high-fat Western Diet, 5 hour time course): blood glucose lowering effect
- effect on glucose (change compared to baseline), in words [2]: continued to have glucose lowering effects
- blood glucose level on the fourteenth day of treatment, in words [3]: lower blood glucose levels
